Source: ChEMBL document CHEMBL3608217, “Discovery of novel bridged tetrahydronaphthalene derivatives as potent T/L-type calcium channel blockers” (Bioorg Med Chem Lett, 2015)
Values after ≈ are worked out from the molar mass of the structure shown. One block for each compound: values may come before it.

How the values were obtained:
[1] = target: Voltage-dependent T-type calcium channel subunit alpha-1H (Homo sapiens, UniProt O95180); test: Inhibition of recombinant Cav3.2 channel (unknown origin) expressed in HEK293 cells assessed as effect on calcium flux incubated for 3 mins by FLIPR assay; assay type: cell-based
Voltage-dependent T-type calcium channel subunit alpha-1H, sequence (O95180 whole entry): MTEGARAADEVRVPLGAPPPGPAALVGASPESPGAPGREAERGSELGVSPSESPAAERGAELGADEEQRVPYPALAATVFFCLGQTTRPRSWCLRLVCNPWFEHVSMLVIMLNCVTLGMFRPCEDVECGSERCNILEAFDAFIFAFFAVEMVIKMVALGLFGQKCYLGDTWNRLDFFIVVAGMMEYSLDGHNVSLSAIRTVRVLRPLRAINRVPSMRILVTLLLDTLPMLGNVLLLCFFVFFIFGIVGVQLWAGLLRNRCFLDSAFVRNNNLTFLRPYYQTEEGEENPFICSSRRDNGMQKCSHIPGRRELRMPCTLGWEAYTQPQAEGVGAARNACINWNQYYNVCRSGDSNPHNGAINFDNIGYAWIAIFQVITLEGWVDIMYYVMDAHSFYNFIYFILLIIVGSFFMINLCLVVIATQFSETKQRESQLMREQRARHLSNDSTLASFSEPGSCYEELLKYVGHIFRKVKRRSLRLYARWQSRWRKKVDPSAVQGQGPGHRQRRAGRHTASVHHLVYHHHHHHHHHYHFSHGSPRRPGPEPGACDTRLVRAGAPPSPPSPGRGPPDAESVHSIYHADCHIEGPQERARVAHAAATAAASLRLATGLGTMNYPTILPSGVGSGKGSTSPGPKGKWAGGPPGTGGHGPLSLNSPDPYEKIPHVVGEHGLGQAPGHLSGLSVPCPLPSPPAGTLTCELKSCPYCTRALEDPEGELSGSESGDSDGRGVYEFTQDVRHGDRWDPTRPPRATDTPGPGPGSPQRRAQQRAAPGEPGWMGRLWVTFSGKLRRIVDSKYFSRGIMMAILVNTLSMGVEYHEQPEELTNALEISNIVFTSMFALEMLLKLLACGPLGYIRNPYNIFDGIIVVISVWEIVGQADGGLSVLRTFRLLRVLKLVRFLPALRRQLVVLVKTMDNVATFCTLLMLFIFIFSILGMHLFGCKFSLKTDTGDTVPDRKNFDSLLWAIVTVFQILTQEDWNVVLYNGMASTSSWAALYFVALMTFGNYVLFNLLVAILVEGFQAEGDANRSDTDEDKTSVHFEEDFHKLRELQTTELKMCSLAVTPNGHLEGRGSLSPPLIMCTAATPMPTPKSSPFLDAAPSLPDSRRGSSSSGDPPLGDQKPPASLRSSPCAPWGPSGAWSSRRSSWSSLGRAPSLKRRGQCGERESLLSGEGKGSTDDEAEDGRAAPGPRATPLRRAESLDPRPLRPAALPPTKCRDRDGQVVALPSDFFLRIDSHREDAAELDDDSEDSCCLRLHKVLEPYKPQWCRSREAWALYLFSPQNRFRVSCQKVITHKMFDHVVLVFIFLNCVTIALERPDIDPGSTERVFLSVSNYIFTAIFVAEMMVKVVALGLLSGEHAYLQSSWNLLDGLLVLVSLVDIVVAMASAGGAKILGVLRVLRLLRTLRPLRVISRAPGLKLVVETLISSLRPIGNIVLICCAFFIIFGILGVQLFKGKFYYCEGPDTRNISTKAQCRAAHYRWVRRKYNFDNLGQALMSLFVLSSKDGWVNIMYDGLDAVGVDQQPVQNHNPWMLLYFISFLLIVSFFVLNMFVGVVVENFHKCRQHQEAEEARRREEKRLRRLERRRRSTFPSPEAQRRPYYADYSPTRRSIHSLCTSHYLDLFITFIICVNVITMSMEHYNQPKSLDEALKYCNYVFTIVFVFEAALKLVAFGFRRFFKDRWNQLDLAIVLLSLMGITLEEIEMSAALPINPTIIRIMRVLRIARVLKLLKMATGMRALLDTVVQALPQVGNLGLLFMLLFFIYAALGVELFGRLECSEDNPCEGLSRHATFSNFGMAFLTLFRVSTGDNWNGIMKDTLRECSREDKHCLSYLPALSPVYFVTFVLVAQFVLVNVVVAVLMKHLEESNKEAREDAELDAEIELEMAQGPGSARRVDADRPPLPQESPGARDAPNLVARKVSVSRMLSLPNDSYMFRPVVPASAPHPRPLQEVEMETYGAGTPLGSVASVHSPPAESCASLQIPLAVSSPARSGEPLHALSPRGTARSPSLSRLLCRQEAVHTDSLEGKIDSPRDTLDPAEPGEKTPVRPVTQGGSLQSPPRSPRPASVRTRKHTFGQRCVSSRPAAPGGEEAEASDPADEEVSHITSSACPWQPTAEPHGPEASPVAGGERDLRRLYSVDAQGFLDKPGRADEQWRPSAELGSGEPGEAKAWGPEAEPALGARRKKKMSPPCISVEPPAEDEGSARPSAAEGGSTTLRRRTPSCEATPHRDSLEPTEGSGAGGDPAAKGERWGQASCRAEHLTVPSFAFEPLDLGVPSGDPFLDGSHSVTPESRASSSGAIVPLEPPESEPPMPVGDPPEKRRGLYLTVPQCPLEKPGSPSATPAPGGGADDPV

[2] = target: Voltage-dependent L-type calcium channel subunit alpha-1C (Homo sapiens, UniProt Q13936); test: Inhibition of recombinant Cav1.2 channel (unknown origin) expressed in HEK293 cells assessed as effect on calcium flux incubated for 3 mins by FLIPR assay; assay type: cell-based
Voltage-dependent L-type calcium channel subunit alpha-1C, sequence (Q13936 whole entry, the tested form may be a part): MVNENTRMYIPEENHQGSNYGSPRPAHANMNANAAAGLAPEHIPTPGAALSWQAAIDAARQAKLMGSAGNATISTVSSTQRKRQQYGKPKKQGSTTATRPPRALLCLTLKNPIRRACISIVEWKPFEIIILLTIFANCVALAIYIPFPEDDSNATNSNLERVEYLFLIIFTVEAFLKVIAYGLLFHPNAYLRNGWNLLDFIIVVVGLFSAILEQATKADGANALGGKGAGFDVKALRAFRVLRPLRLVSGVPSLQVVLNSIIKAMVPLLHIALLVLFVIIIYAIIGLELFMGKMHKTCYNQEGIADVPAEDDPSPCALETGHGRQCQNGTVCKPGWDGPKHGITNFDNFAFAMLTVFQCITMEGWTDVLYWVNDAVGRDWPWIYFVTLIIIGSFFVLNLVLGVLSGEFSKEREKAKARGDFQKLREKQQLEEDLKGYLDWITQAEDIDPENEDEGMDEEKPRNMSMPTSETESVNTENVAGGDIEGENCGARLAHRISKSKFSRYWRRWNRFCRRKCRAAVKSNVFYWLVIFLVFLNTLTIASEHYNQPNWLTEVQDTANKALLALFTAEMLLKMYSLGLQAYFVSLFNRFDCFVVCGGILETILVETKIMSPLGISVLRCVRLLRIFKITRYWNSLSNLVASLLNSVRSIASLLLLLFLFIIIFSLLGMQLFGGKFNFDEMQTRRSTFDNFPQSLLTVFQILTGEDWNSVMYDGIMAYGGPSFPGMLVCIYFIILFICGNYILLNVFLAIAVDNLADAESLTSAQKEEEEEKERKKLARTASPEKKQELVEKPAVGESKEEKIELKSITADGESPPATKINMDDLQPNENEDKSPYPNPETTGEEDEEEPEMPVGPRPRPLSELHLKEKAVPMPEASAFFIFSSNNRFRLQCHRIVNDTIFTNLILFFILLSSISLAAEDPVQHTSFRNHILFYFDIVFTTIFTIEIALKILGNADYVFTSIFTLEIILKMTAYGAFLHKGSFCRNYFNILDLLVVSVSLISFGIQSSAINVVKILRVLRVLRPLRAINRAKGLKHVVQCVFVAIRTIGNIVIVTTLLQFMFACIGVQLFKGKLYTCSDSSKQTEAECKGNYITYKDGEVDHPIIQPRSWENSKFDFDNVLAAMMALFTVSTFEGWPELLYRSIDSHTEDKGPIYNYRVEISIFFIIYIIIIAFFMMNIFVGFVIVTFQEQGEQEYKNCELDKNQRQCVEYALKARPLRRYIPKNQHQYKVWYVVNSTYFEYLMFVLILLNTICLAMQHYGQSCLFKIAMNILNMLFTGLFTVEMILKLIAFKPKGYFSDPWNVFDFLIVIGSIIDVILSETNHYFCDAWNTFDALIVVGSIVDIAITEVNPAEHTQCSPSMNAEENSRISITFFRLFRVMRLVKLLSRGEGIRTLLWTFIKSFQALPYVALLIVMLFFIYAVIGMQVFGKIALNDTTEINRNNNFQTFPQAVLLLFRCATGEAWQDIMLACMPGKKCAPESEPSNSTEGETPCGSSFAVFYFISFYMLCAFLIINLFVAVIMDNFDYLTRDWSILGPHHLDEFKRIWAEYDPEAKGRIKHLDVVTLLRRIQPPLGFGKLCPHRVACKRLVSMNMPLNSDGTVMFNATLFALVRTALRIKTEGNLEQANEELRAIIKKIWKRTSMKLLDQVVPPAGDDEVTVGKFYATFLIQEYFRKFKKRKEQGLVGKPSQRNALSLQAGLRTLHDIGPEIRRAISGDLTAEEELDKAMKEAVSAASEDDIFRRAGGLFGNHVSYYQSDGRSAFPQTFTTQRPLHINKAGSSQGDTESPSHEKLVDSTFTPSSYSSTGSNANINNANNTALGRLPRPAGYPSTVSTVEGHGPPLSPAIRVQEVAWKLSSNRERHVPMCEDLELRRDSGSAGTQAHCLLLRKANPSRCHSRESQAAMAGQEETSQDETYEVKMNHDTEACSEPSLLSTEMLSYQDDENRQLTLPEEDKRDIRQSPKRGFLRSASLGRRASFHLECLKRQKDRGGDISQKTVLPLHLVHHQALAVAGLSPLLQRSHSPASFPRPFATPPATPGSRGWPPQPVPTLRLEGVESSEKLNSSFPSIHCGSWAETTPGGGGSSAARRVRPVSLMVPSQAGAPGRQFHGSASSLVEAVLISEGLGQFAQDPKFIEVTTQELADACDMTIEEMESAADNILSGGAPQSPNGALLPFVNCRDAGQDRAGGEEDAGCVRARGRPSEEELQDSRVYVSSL

Heart = test: Increase in coronary flow in Wistar rat Langendorff isolated perfused heart; assay type: functional, tissue-based
Rattus norvegicus [3] = test: Antihypertensive activity in freely moving conscious spontaneously hypertensive rat at assessed as reduction in mean arterial pressure at 10 mg/kg, po administered as single dose in morning at end of wake phase measured after 6 hrs by telemetry; assay type: functional, Artery
Rattus norvegicus [4] = test: Antihypertensive activity in freely moving conscious spontaneously hypertensive rat at assessed as area between curve for reduction in mean arterial pressure at 10 mg/kg, po administered as single dose in morning at end of wake phase by telemetry; assay type: functional, Artery
Cytochrome P450 3A4 [5] = target: T1, Cytochrome P450 3A4 (Homo sapiens, UniProt P08684); test: Inhibition of CYP3A4 in human liver microsomes assessed as reduction in testosterone 6beta-hydroxylation by LC-MS/MS method; assay type: ADME
T1 sequence (P08684 whole entry): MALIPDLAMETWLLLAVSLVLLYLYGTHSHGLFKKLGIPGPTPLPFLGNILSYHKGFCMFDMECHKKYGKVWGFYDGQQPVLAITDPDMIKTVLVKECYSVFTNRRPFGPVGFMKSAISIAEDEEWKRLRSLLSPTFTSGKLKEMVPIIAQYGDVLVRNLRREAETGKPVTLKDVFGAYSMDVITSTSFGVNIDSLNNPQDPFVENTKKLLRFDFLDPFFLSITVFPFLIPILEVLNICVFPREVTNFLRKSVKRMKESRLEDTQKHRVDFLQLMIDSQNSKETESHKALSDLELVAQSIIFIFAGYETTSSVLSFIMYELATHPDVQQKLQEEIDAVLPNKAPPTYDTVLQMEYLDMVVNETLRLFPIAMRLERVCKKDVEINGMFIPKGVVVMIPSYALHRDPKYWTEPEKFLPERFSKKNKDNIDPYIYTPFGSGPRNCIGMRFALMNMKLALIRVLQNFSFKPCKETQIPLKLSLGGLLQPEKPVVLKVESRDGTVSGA

Cytochrome P450 3A4 [6] = target: T1, Cytochrome P450 3A4; test: Inhibition of CYP3A4 in human liver microsomes assessed as reduction in midazolam 1'-hydroxylation by LC-MS/MS method; assay type: ADME
Cytochrome P450 3A4 [7] = target: T1, Cytochrome P450 3A4; test: Time dependent inhibition of CYP3A4 in human liver microsomes assessed as reduction in testosterone 6beta-hydroxylation incubated for 60 mins in presence of NADPH generating system by LC-MS/MS method; assay type: ADME
Cytochrome P450 2D6 = Cytochrome P450 2D6 (Homo sapiens, UniProt P10635); test: Inhibition of CYP2D6 in human liver microsomes assessed as reduction in dextromethorphan-O demethylation by LC-MS/MS method; assay type: ADME
Cytochrome P450 2C9 = Cytochrome P450 2C9 (Homo sapiens, UniProt P11712); test: Inhibition of CYP2C9 in human liver microsomes assessed as reduction in diclofenac 4'-hydroxylation by LC-MS/MS method; assay type: ADME
[8] = target: Voltage-gated inwardly rectifying potassium channel KCNH2 (Homo sapiens, UniProt Q12809); test: Inhibition of human ERG expressed in HEK cells by patch clamp assay
[9] = AUC in Wistar rat at 10 mg/kg, po; assay type: ADME, organism-based; conditions: in vivo
[10] = Cmax in Wistar rat at 10 mg/kg, po; assay type: ADME, organism-based; set-up: dose 10 mg/kg, route oral; conditions: in vivo
[11] = Half life in Wistar rat at 10 mg/kg, po or 1 mg/kg, iv; assay type: ADME, organism-based; conditions: in vivo
[12] = Clearance in Wistar rat at 10 mg/kg, po or 1 mg/kg, iv; assay type: ADME, organism-based; conditions: in vivo
[13] = Volume of distribution at steady state in Wistar rat at 10 mg/kg, po or 1 mg/kg, iv; assay type: ADME, organism-based; conditions: in vivo, read-out: Vdss
[14] = Oral bioavailability in Wistar rat at 10 mg/kg; assay type: ADME, organism-based; conditions: in vivo
[15] = Protein binding in human plasma; assay type: ADME, cell-free; conditions: read-out: PPB
[16] = Protein binding in rat plasma; assay type: ADME, cell-free; conditions: read-out: PPB (converted)
[17] = Distribution coefficient, log D of the compound at pH 7.4; assay type: physicochemical; conditions: octanol/water
[18] = Solubility in Water at pH 4; assay type: physicochemical
[19] = Solubility in 0.1M HCl; assay type: physicochemical
[20] = Solubility in pH 7.0 buffer; assay type: physicochemical
Rattus norvegicus [21] = test: Antihypertensive activity in freely moving conscious spontaneously hypertensive rat at assessed as time duration for reduction in mean arterial pressure at 10 mg/kg, po administered as single dose in morning at end of wake phase by telemetry; assay type: functional, Artery
[22] = Rattus norvegicus, Wistar, Heart

SMILES: COCC(=O)O[C@]1(CCN(C)CCCc2nc3ccccc3[nH]2)C[C@@H]2CC[C@H]1c1ccccc12 (racemic)
IC50 [1]: 0.361 µM
IC50 [2]: 0.748 µM
EC50 (Heart; [22]): 0.25 µM

SMILES: COCC(=O)O[C@]1(CCN(C)CCCc2nc3ccccc3[nH]2)CC(C)(C)c2cc(F)ccc2[C@@H]1C(C)C
IC50 [1]: 0.207 µM
IC50 [2]: 0.434 µM

SMILES: CC(C)C(=O)O[C@]1(CCN(C)CCCc2nc3ccccc3[nH]2)C[C@@H]2CC[C@H]1c1ccccc12
IC50 [1]: 0.35 µM
IC50 [2]: 0.699 µM
EC50 (Heart): > 0.15 µM

SMILES: CC(C)C(=O)O[C@]1(CCN(C)CCCc2nc3ccccc3[nH]2)C[C@@H]2CC[C@H]1c1ccccc12 (racemic)
IC50 [1]: 0.432 µM
IC50 [2]: 0.533 µM
EC50 (Heart): 0.042 µM

SMILES: CO[C@@H]1C[C@@](CCN(C)CCCc2nc3ccccc3[nH]2)(OC(=O)C(C)C)[C@@H](C(C)C)c2ccc(F)cc21
IC50 [1]: 0.557 µM
IC50 [2]: 0.588 µM
EC50 (Heart; [22]): 0.029 µM

SMILES: CC(C)C(=O)O[C@]1(CCN(C)CCCc2nc3ccccc3[nH]2)C[C@@H]2CCC[C@H]1c1ccccc12 (racemic)
IC50 [1]: 0.217 µM
IC50 [2]: 0.437 µM
EC50 (Heart): 0.039 µM

SMILES: CN(CCCc1nc2ccccc2[nH]1)CC[C@@]1(OC(=O)C2CC2)C[C@@H]2CC[C@H]1c1ccccc12 (racemic)
IC50 [1]: 0.21 µM
IC50 [2]: 0.14 µM
EC50 (Heart; [22]): 0.077 µM

SMILES: CC(C)C(=O)O[C@]1(CCN(C)CCCc2nc3ccccc3[nH]2)C[C@@H]2CCC[C@H]1c1ccccc12
IC50 [1]: 0.225 µM
IC50 [2]: 0.648 µM
EC50 (Heart; [22]): 0.026 µM

SMILES: COCC(=O)O[C@]1(CCN(C)CCCc2nc3ccccc3[nH]2)CCc2cc(F)ccc2[C@@H]1C(C)C [MIBEFRADIL]
EC50 (Heart; [22]): 0.026 µM
Activity (Rattus norvegicus [3]): 32 mmHg
ABC (Rattus norvegicus [4]): 437 mmHg.hr

SMILES: CC(C)C(=O)O[C@@]1(CCN(C)CCCc2nc3ccccc3[nH]2)C[C@H]2CC[C@@H]1c1ccccc12
IC50 [1]: 0.398 µM
IC50 [2]: 0.424 µM
EC50 (Heart; [22]): 0.026 µM

SMILES: CO[C@]1(CCN(C)CCCc2nc3ccccc3[nH]2)C[C@@H]2CC[C@H]1c1ccccc12 (racemic)
IC50 [1]: 0.224 µM
IC50 [2]: 2.67 µM
EC50 (Heart; [22]): > 0.3 µM

SMILES: CC(C)C(=O)O[C@]1(CCN(C)CCCc2nc3ccccc3[nH]2)C[C@@H]2CC[C@H]1c1nccnc12 (racemic)
IC50 [1]: 2.07 µM
IC50 [2]: > 4.6 µM
EC50 (Heart; [22]): > 1 µM

SMILES: CO[C@H]1C[C@@](CCN(C)CCCc2nc3ccccc3[nH]2)(OC(=O)C(C)C)[C@@H](C(C)C)c2ccc(F)cc21
IC50 [1]: 0.318 µM
IC50 [2]: 0.403 µM
EC50 (Heart; [22]): 0.04 µM

Further compounds by falling IC50 [1], results first:

IC50 [1]: 0.193 µM
EC50 (Heart; [22]): 0.023 µM
SMILES: CCCC[C@@H]1C[C@@](CCN(C)CCCc2nc3ccccc3[nH]2)(OC(=O)COC)[C@@H](C(C)C)c2ccc(F)cc21
IC50 [2]: 0.173 µM

IC50 [1]: 0.184 µM
EC50 (Heart; [22]): 0.022 µM
SMILES: CC(C)C(=O)O[C@@]1(CCN(C)CCCc2nc3ccccc3[nH]2)C[C@H]2CCC[C@@H]1c1ccccc12
IC50 [2]: 0.455 µM

IC50 [1]: 0.149 µM
EC50 (Heart; [22]): 0.02 µM
SMILES: CC(C)C(=O)O[C@]1(CCN(C)CCCc2nc3ccccc3[nH]2)CCc2cc(F)ccc2[C@@H]1C(C)C
IC50 [2]: 0.347 µM

IC50 [1]: 0.132 µM
EC50 (Heart; [22]): 0.02 µM
SMILES: CC(C)C(=O)O[C@]1(CCN(C)CCCc2nc3ccccc3[nH]2)C[C@@H](OCc2ccccc2)c2cc(F)ccc2[C@@H]1C(C)C
IC50 [2]: 0.156 µM

IC50 [1]: 0.113 µM
EC50 (Heart; [22]): 0.016 µM
SMILES: CC(C)C(=O)O[C@]1(CCN(C)CCCc2nc3ccccc3[nH]2)C[C@H](OCc2ccccc2)c2cc(F)ccc2[C@@H]1C(C)C
IC50 [2]: 0.225 µM

IC50 [1]: 0.107 µM
EC50 (Heart; [22]): 0.134 µM
SMILES: CC(C)C(=O)O[C@]1(CCN(C)CCCc2nc3ccccc3[nH]2)C[C@@H](O)c2cc(F)ccc2[C@@H]1C(C)C
IC50 [2]: 0.504 µM

IC50 [1]: 0.084 µM
EC50 (Heart; [22]): 0.007 µM
IC50 (Cytochrome P450 3A4 [5]): 5.5 µM
IC50 (Cytochrome P450 3A4 [6]): 3 µM
IC50 (Cytochrome P450 3A4 [7]): 34 µM
IC50 (Cytochrome P450 2D6): 1.4 µM
IC50 (Cytochrome P450 2C9): 32 µM
AUC [9]: 0.198 µg·h/mL
Cmax [10]: 0.064 µg/mL
half-life [11]: 2.2 h
clearance [12]: 3.48 L/h/kg
Vd [13]: 7.1 L/kg
bioavailability [14]: 7%
fraction unbound [15]: < 0.001
fraction unbound [16]: 0.002
logD [17]: 2.7
solubility [18]: 0.734 mg/mL (≈ 1460 µM)
solubility [19]: 0.681 mg/mL (≈ 1350 µM)
solubility [20]: 0.119 mg/mL (≈ 236 µM)
SMILES: COc1cccc2nc(CCCN(C)CC[C@]3(OC(=O)C(C)C)C[C@H]4CCC[C@@H]3c3ccccc34)[nH]c12
IC50 [2]: 0.387 µM
IC50 [8]: < 0.4 µM
Activity (Rattus norvegicus [3]): 35 mmHg
ABC (Rattus norvegicus [4]): 377 mmHg.hr
Time (Rattus norvegicus [21]): 24 h

IC50 [1]: 0.076 µM
EC50 (Heart; [22]): 0.038 µM
SMILES: CC(C)C(=O)O[C@]1(CCN(C)CCCc2nc3ccccc3[nH]2)C[C@H](O)c2cc(F)ccc2[C@@H]1C(C)C
IC50 [2]: 0.426 µM
